The values below come from ChEMBL document CHEMBL5543140 (J Med Chem, 2024).

As usually defined, the pEC50 is the EC50 on a negative log10 scale, so that one unit is a factor of ten. By inhibition is commonly meant the percentage by which the read-out fell short of the control. The inhibition in vivo is the change of the read-out against control, counted positive when it falls. Broadly, the half-life is how long it takes for the measured level to halve. As a reminder, the Cmax is the maximum level reached in the sampled fluid or tissue. Usually Vd stands for a proportionality between amount in the body and measured concentration, not a real space. Low values mean little distribution into tissue, high ones wide distribution into tissue. As usually defined, the AUC(0-inf) is the area under the concentration-time curve extrapolated to infinity. Higher therefore signals more exposure. The MRT last is a mean duration of stay, worked out from the concentration-time curve. Usually MRT inf stands for a mean duration of stay, worked out from the concentration-time curve. For orientation: AUC(0-t) means exposure summed from dosing to a finite time, without extrapolation to infinity. A low value points to low exposure.

Molecules are shown by their SMILES. pEC50: −log10 of the molar value. The source made the active and inactive calls. The calls are words filed in the database; no cut-off is given here.

The subject of series [1] is Mus musculus. As to the kind of experiment: Psychedelic effect in C57BL/6J mouse assessed as number of head-twitch responses by visual observation at 3 mg/kg, po measured for 3 mins at 5 to 25 min. In kind it is functional. The following applies: 0.05 h.
The target in series [2] is T1, 5-hydroxytryptamine receptor 2C (Homo sapiens, UniProt P28335).
T1 sequence (P28335 whole entry): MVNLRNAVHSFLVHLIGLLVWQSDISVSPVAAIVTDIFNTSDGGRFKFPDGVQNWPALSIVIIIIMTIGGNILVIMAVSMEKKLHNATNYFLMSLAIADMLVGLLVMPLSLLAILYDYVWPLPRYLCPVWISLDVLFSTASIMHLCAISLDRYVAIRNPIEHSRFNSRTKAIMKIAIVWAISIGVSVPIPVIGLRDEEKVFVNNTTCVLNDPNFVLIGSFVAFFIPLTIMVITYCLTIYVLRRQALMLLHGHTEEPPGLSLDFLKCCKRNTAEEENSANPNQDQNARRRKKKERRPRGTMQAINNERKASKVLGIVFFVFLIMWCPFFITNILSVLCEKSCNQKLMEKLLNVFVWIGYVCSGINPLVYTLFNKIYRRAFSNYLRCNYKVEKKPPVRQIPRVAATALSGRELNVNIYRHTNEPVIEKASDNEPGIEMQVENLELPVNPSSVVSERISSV
As to the kind of experiment: Agonist activity at human 5-HT2C receptor expressed in HEK293 cells assessed as IP2 production measured after 30 mins incubation by HTRF assay. In kind it is functional, cell-based.

Series [3] has as its target Muscarinic acetylcholine receptor M1 (Homo sapiens) (UniProt P11229). The series is described as follows: Displacement of [3H]-Pirenzepine from human muscarinic M1 expressed in CHO-K1 cells membrane at 10 uM incubated for 60 mins by microbeta liquid scintillation counting analysis. The following applies: Cell membrane. In kind it is cell membranes. (Loss of bound radioactivity is the signal in a displacement assay; it reports binding, not function.)

Series [4] relates to Mus musculus. As to the kind of experiment: Psychedelic effect in C57BL/6J mouse assessed as development of tolerance/ tachyphylaxis at 3 mg/kg, sc measured on day 4 by head-twitch responses test. In kind it is functional, organism-based. The following applies: time 4.0 day.
A short description of series [5]: Ex vivo binding in C57BL/6J mouse brain frontal cortex assessed as specific binding [3H]Cimbi-36 at 1 mg/kg, sc measured after 15 mins by liquid scintillation counting analysis (reference value: 1092 +/- 53). In kind it is functional. The following applies: 0.25 h.
Series [6] is described as follows: Ex vivo binding in C57BL/6J mouse brain frontal cortex assessed as specific binding [3H]Cimbi-36 at 1 mg/kg, sc measured after 40 mins by liquid scintillation counting analysis (reference value: 1092 +/- 53). In kind it is functional.
The nature of series [7]: Ex vivo binding in C57BL/6J mouse brain frontal cortex assessed as inhibition of [3H]Cimbi-36 binding at 1 mg/kg, sc measured after 5 mins by liquid scintillation counting analysis (reference value: 0%). In kind it is functional.
For series [8], the system named is Mus musculus. As to the kind of experiment: Induction of neuroplasticity in C57BL/6J mouse assessed as increase in Homer1 mRNA expression in brain frontal cortex at 3 mg/kg, sc single dose by RT-PCR analysis. In kind it is functional, organism-based.
The subject of series [9] is Hippocampus. As to the kind of experiment: Induction of neuroplasticity in C57BL/6J mouse assessed as increase in SYN1 mRNA expression in brain hippocampus at 0.3 mg/kg, sc single dose by RT-PCR analysis. In kind it is functional, organism-based.
Series [10] deals with Hippocampus. The series is described as follows: Induction of neuroplasticity in C57BL/6J mouse assessed as increase in mTOR mRNA expression in brain hippocampus at 0.3 mg/kg, sc single dose by RT-PCR analysis. In kind it is functional, organism-based.
A short description of series [11]: Metabolic stability in dog liver S9 fractions assessed as half life. In kind it is ADME, subcellular, Canis lupus familiaris. The following applies: liver S9 fraction.
Series [12] can be described thus: Cmax in Wistar rat plasma at 1 mg/kg, iv measured upto 48 hrs. In kind it is ADME, organism-based.
The nature of series [13]: Volume of distribution in Wistar rat plasma at 1 mg/kg, iv measured upto 48 hrs. In kind it is ADME, organism-based.
A short description of series [14]: AUCinf in Wistar rat brain at 1 mg/kg, iv measured upto 48 hrs. In kind it is ADME, organism-based.
Series [15] can be described thus: MRTlast in Wistar rat brain at 1 mg/kg, iv measured upto 48 hrs. In kind it is ADME, organism-based.
Series [16] is described as follows: Drug excretion in Wistar rat urine at 5 mg/kg, po measured upto 48 hrs. In kind it is ADME, organism-based. The following applies: read-out: Drug excretion.
Series [17] is described as follows: MRTinf in male Sprague-Dawley rat plasma at 1 mg/kg, iv measured upto 8 hrs by LC-MS/MS analysis. In kind it is ADME, organism-based.
Series [18] can be described thus: Half life in male Sprague-Dawley rat brain at 1 mg/kg, iv measured upto 8 hrs by LC-MS/MS analysis. In kind it is ADME, organism-based.
A short description of series [19]: AUClast in male Sprague-Dawley rat CSF at 1 mg/kg, iv measured upto 8 hrs by LC-MS/MS analysis. In kind it is ADME, organism-based, Cerebrospinal fluid.
The nature of series [20]: AUCinf in beagle dog at 2 mg/kg, po measured upto 24 hrs. In kind it is ADME, organism-based, Canis lupus familiaris. The following applies: in vivo.

Chain of Muscarinic acetylcholine receptor M1 (Homo sapiens) (P11229 whole entry): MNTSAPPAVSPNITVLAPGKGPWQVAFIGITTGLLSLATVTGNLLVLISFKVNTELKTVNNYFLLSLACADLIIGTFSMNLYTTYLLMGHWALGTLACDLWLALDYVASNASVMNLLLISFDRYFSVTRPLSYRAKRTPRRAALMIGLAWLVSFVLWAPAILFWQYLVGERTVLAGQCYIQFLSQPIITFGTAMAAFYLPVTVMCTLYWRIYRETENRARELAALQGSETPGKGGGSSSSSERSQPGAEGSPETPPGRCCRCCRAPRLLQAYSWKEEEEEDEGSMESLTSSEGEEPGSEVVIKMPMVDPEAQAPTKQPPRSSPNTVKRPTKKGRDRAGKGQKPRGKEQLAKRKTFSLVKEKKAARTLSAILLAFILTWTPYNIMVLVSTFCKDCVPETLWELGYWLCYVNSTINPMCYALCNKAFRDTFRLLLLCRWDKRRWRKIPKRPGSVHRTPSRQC

As for `COc1cc([Se]C(F)(F)F)c(OC)cc1CCN.Cl`, the Activity in series [1] is reported as 25; in series [5], 971; in [6], 732. The pEC50 in [2] was 7.04. The molecule further returned an inhibition in series [3] of 88%. For the same molecule, the result in [4], in series [9] and in series [10] was inactive. For the same molecule, in series [7], the inhibition in vivo at 1 mg/kg came out at 13%. Further, the outcome in [8] was Active. The results for the half-life in [11] and in series [18] were more than 2 h and 1.34 h, respectively. In series [12], the Cmax was found to be 54.1 ng/mL. The same molecule displayed a volume of distribution (Vd) in series [13] of 22.2 L/kg. Moreover, the AUC(0-inf) came out at 3260 ng·h/mL in series [14] and 2970 ng·h/mL in series [20]. Further, in series [15], the MRT last at 48 h is 2.54 h. In addition, in series [16], the dose excreted at 48 h came to 0.3%. Besides, the MRT inf in [17] amounted to 1.19 h. The molecule further displayed an AUC(0-t) at 8 h in series [19] of 49.9 ng·h/mL.
